Drawing on ChEMBL document CHEMBL1250509, “Rose Bengal analogs and vesicular glutamate transporters (VGLUTs)” (Bioorg Med Chem, 2010), this text covers IC50 and Ki for 31 compounds.

Tested on in the first experiment: not listed separately
Description: Inhibition of VGLUT in rat synaptic vesicles assessed as [3H]glutamate uptake pretreated for 30 mins measured after 10 mins by scintillation spectrophotometer analysis.
Consider `O=C(O)c1c(Cl)c(Cl)c(Cl)c(Cl)c1-c1c2cc(Br)c(=O)c(Br)c-2oc2c(Br)c(O)c(Br)cc12`, for which the IC50 amounted to 51 nM.

Turning to `O=C(O)c1cc(Cl)c(Cl)cc1-c1c2cc(I)c(=O)c(I)c-2oc2c(I)c(O)c(I)cc12`, the concentration for half-maximal inhibition (IC50) came out at 41 nM.

`O=C(O)c1c(O)cccc1-c1c2cc(I)c(=O)c(I)c-2oc2c(I)c(O)c(I)cc12`: the IC50 turned out to be 7800 nM.

Take `COc1c(I)cc2c(c1I)Oc1c(cc(I)c(OC)c1I)C21OC(=O)c2c(Cl)c(Cl)c(Cl)c(Cl)c21`: the IC50 amounted to 8820 nM.

As for `O=C(O)c1c(Cl)c(Cl)c(Cl)c(Cl)c1-c1c2ccc(=O)cc-2oc2cc(O)ccc12`, the IC50 came out at 15000 nM.

As to `O=C(O)c1ccccc1-c1c2cc(Cl)c(=O)cc-2oc2cc(O)c(Cl)cc12`, the IC50 is greater than 64000 nM.

Take `O=C(O)c1c(Cl)ccc(Cl)c1-c1c2cc(I)c(=O)c(I)c-2oc2c(I)c(O)c(I)cc12`: the IC50 is 27 nM.

With `COC(=O)c1c(Cl)c(Cl)c(Cl)c(Cl)c1-c1c2cc(I)c(=O)c(I)c-2oc2c(I)c(O)c(I)cc12`, the IC50 came out at 44 nM.

Take `O=C(OCc1ccccc1)c1c(Cl)c(Cl)c(Cl)c(Cl)c1-c1c2cc(I)c(=O)c(I)c-2oc2c(I)c(O)c(I)cc12`: the IC50 was 65 nM.

As for `CCOC(=O)c1ccccc1-c1c2cc(Br)c(=O)c(Br)c-2oc2c(Br)c(O)c(Br)cc12`, the IC50 stood at 65 nM.

Turning to `O=C(O)c1c(Br)c(Br)c(Br)c(Br)c1-c1c2cc(I)c(=O)c(I)c-2oc2c(I)c(O)c(I)cc12`, the IC50 was 74 nM.

With `O=C(O)c1c(F)c(F)c(F)c(F)c1-c1c2cc(I)c(=O)c(I)c-2oc2c(I)c(O)c(I)cc12`, the IC50 was 102 nM.

Take `COC(=O)c1ccccc1-c1c2cc(Br)c(=O)c(Br)c-2oc2c(Br)c(O)c(Br)cc12`: the IC50 worked out at 117 nM.

`CCOC(=O)c1c(Cl)c(Cl)c(Cl)c(Cl)c1-c1c2cc(I)c(=O)c(I)c-2oc2c(I)c(O)c(I)cc12`: the IC50 was 192 nM.

Take `COC(=O)c1ccccc1-c1c2cc([N+](=O)[O-])c(=O)c(Br)c-2oc2c(Br)c(O)c([N+](=O)[O-])cc12`: the IC50 turned out to be 238 nM.

With `Cc1c2oc3c(C)c(O)c(I)cc3c(-c3ccccc3C(=O)O)c-2cc(I)c1=O`, the IC50 worked out at 531 nM.

`N#CSc1ccc(C(=O)O)c(-c2c3cc(I)c(=O)c(I)c-3oc3c(I)c(O)c(I)cc23)c1`: the IC50 turned out to be 689 nM.

Consider `O=C(O)c1ccccc1-c1c2ccc(=O)c(I)c-2oc2c(I)c(O)ccc12`, for which the IC50 amounted to 1060 nM.

For the compound `O=C(O)CCc1c2cc(I)c(=O)c(I)c-2oc2c(I)c(O)c(I)cc12`, the IC50 is 2200 nM.

As for `O=C(O)c1cccc([N+](=O)[O-])c1-c1c2cc(I)c(=O)c(I)c-2oc2c(I)c(O)c(I)cc12`, the IC50 was 6690 nM.

For `O=C(O)c1ccccc1-c1c2cc(Br)c(=O)c(Br)c-2oc2c(Br)c(O)c(Br)cc12`, the half-inhibitory concentration (IC50) came to 406 nM.

Consider `O=C(O)c1ccccc1-c1c2cc(I)c(=O)c(I)c-2oc2c(I)c(O)c(I)cc12`, for which the IC50 was 36 nM.

Regarding `O=c1c(I)cc2c(-c3cc(Cl)c(Cl)c(Cl)c3Cl)c3cc(I)c(O)c(I)c3oc-2c1I` [DESCARBOXY RB], the IC50 stood at 68 nM.

For `O=C(O)c1ccccc1-c1c2cc([N+](=O)[O-])c(=O)c(Br)c-2oc2c(Br)c(O)c([N+](=O)[O-])cc12` [EOSIN B], the 50% inhibitory concentration (IC50) was found to be 2440 nM.

As to `O=c1ccc2c(-c3ccccc3S(=O)(=O)O)c3ccc(O)c(O)c3oc-2c1O` [PYROGALLOL RED], the IC50 is greater than 32000 nM.

Turning to `O=C(O)c1c(Cl)c(Cl)c(Cl)c(Cl)c1-c1c2cc(I)c(=O)c(I)c-2oc2c(I)c(O)c(I)cc12` [ROSE BENGAL SODIUM], the IC50 is 19 nM.

In a further experiment the target is T1, Vesicular acetylcholine transporter (Rattus norvegicus, UniProt Q62666).
T1 sequence (Q62666 whole entry): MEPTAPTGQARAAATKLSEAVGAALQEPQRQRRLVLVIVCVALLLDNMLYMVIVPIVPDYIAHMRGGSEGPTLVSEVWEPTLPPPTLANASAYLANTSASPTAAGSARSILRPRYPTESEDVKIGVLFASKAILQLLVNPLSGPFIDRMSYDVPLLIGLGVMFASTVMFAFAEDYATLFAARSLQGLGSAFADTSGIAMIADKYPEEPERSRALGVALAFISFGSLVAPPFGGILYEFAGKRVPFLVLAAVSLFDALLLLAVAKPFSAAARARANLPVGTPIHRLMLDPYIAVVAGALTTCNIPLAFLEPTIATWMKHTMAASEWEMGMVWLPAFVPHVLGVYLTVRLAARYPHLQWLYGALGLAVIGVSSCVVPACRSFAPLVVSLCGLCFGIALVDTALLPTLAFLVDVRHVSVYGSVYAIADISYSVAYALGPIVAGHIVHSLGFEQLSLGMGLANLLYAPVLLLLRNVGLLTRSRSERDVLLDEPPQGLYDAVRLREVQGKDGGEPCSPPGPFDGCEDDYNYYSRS
Description: Inhibition of VACHT in rat synaptic vesicles assessed as […] 30 mins measured after 10 mins by scintillation spectrophotometer analysis.
As to `O=C(O)c1c(Cl)c(Cl)c(Cl)c(Cl)c1-c1c2cc(I)c(=O)c(I)c-2oc2c(I)c(O)c(I)cc12` [ROSE BENGAL SODIUM], the IC50 stood at 9700 nM.

Tested on in another experiment: not listed separately
Description: Inhibition of VGLUT.
Compound `N[C@]1(C(=O)O)CC[C@@H](C(=O)O)C1` registered an IC50 of 230000 nM.

Take `O=C(O)c1cc(C(=O)O)c2cc(-c3ccc(-c4ccccc4)cc3)cc(O)c2n1` [QUINOLEIN DICARBOXYLIC ACID]: the IC50 was 40000 nM.

Turning to `O=C(O)c1c(Cl)c(Cl)c(Cl)c(Cl)c1-c1c2cc(I)c(=O)c(I)c-2oc2c(I)c(O)c(I)cc12` [ROSE BENGAL SODIUM], the Ki is 19 nM.

Tested on in another experiment: not listed separately
Briefly: Inhibition of VMAT in rat synaptic vesicles assessed as [3H]HT uptake pretreated for 30 mins measured after 10 mins by scintillation spectrophotometer analysis.
In the case of `O=C(O)c1c(Cl)c(Cl)c(Cl)c(Cl)c1-c1c2cc(I)c(=O)c(I)c-2oc2c(I)c(O)c(I)cc12` [ROSE BENGAL SODIUM], the IC50 stood at 64 nM.

Tested on in another experiment: not listed separately
Description: Inhibition of VGLUT in rat synaptic vesicles assessed as [3H]glutamate uptake at 2.5 uM pretreated for 30 mins measured after 10 mins by scintillation spectrophotometer analysis.
For `O=C(O)c1c(Cl)c(Cl)c(Cl)c(Cl)c1-c1c2ccc(=O)cc-2oc2cc(O)c3ccccc3c12`, the IC50 result was “Not Active”.

Turning to `O=C(O)c1c(Cl)c(Cl)c(Cl)c(Cl)c1-c1c2c3ccccc3c(=O)cc-2oc2cc(O)c3ccccc3c12`, the half-inhibitory concentration (IC50) entry is given as “Not Active”.

Consider `O=C1OC2(c3ccc(O)cc3Oc3cc(O)ccc32)c2ccccc21` [FLUORESCEIN], for which the half-inhibitory concentration (IC50) entry is “Not Active”.
